Reference: patent US20210230134A1, “VITAMIN E DERIVATIVES AND THEIR USE AS MULTI-SCALE IMAGING AGENTS” (EXACT DELIVERY INC., priority 2018, published 2021)

Key:
[1] = system: C2C12 mouse myoblasts; test: MTT tetrazolium reduction viability assay, C2C12 myoblasts; assay type: cell-based; settings: 24 h; for viability (formazan absorbance at 570 nm, MTT): 1 nM to 1 mM, vs 0.1% DMSO vehicle
Method: (§1) C2C12 mouse myoblasts and mouse embryonic fibroblasts (MEFs) were cultured in DMEM supplemented with 10% (v/v) FBS, 4500 mg/L glucose, 4 mM L-glutamine, 1 mM sodium pyruvate, 2% (v/v) MEM nonessential amino acid solution, and penicillin (50 I.U./mL)/streptomycin (50 μg/mL) solution (complete media). Cells were cultured in a humidified 5% CO2 atmosphere within a Thermo Forma Series II water-jacketed CO2 incubator maintained at 37° C. Cells were transferred to fresh 96- or 6-well plates (2,000 cells/well & 60,000 cells/well, respectively) in the evening prior to commencing tocopherol treatments.
(§2) Each tocopherol was dissolved in sterile 100% DMSO to yield a 1 M stock solution. Less concentrated stock solutions were subsequently prepared using ten-fold serial dilutions. All tocopherol solutions were stored at −20° C. To treat cultured cells, media was replaced with complete media containing freshly-added tocopherol; the final amount of vehicle (DMSO) for all concentrations tested was 0.1% (v/v).
(§3) Media was discarded, wells were washed once with phenol red-free complete culture media, and 100 μL/well phenol red-free complete culture media containing 0.45 mg/mL MTT was added. Two hours later, solubilization solution [40% (v/v) dimethylformamide, 2% (v/v) glacial acetic acid, 16% (w/v) sodium dodecyl sulfate, pH 4.7] was added (100 μL/well) and well contents were gently mixed by re-suspension to dissolve the formazan precipitate. Plates were incubated at room temperature in darkness for 2 h before recording absorbance at 570 nm using a Bio-Tek PowerWave Microplate UV-Vis spectrophotometer (Winooski, Vt., USA). For each plate, background signal averaged from cell-free wells containing vehicle treatments was subtracted
as §3, with “subtracted.” for “subtracted”

[2] = system: mouse embryonic fibroblasts (MEFs); test: MTT tetrazolium reduction viability assay, MEFs; assay type: cell-based; settings: 24 h; for viability (formazan absorbance at 570 nm, MTT): 1 nM to 1 mM, vs 0.1% DMSO vehicle
Method: as §1, §2, §3
as §3, with “subtracted.” for “subtracted”

[3] = biological target: T1, α-TTP (α-tocopherol transfer protein) (Homo sapiens, UniProt P49638); test: Competitive displacement of TBtoc from pre-incubated complex with α-TTP; assay type: binding; settings: 0.4 μM TBtoc pre-incubated with 0.4 μM α-TTP; competitor in dioxane; TKE buffer
T1 sequence (P49638 1-278): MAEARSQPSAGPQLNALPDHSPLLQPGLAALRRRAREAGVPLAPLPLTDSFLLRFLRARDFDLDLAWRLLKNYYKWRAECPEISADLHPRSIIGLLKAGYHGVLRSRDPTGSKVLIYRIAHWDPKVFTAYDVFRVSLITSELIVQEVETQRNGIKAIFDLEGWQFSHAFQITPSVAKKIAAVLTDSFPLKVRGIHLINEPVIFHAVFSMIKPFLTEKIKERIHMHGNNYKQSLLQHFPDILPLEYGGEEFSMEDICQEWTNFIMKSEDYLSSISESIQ
Method: When α-TTP is pre-incubated with TBtoc, competitive assays are possible by the incremental addition of a specific ligand such as natural α-tocopherol. Cholesterol served as a negative control (FIG. 5). About 57% of the bound fluorescence could be competed of α-TTP by α-tocopherol, whereas only about 8% was lost with cholesterol.

Structure (SMILES)	viability (formazan absorbance at 570 nm, MTT) [1]	viability (formazan absorbance at 570 nm, MTT) [2]	bound fluorescence competed off α-TTP [3]	cytotoxic concentration (no cytotoxicity up to stated concentration) ([1]; MTT) [mM]	cytotoxic concentration (no cytotoxicity up to stated concentration) ([2]; MTT) [mM]
Cc1c(C)c2c(c(C)c1O)CC[C@@](C)(CCC[C@H](C)CCC[C@H](C)CCCC(C)C)O2 [α-tocopherol, reference compound]	no sensitivity	no sensitivity	About 57%		
CC(C)CCC[C@@H](C)[C@H]1CC[C@H]2[C@@H]3CC=C4C[C@@H](O)CC[C@]4(C)[C@H]3CC[C@]12C [cholesterol]			about 8%		
Cc1c(C)c2c(c(C)c1[19F])CC[C@@](C)(CCC[C@H](C)CCC[C@H](C)CCCC(C)C)O2 [F-Toc]	no sensitivity	no sensitivity		> 1	> 1
Cc1c(C)c2c(c(C)c1I)CC[C@@](C)(CCCC(C)CCCC(C)CCCC(C)C)O2 (stereo partly drawn) [I-Toc, (2R)-6-iodo-2,5,7,8-tetramethyl-2-(4.8.12-trimethyl-tridecyl)-chroman]	no negative sensitivity	no negative sensitivity			
